In patent publication US20220331303A1, “USE OF AN OREXIN 2 RECEPTOR AGONIST FOR THE TREATMENT OF EXCESSIVE SLEEPINESS” (Takeda Pharmaceutical Company Limited, priority 2019, published 2022):
Read-outs that look alike come from different tables or passages of the source.

Columns and labels:
Format in all cases: in vivo, human
[1] = Multiple-dose plasma PK of IV Compound A in patients with NT2; conditions: for Cmax / concentration at 1 h / concentration at 2 h / concentration at 4 h / concentration at 6 h / concentration at 9 h / Tmax / AUC(0-inf) / AUC(0-t) / AUC / clearance / Vd: human, plasma, intravenous; for concentration at 1 h: 1 Hour Postdose at Day 1; for concentration at 2 h: 2 Hours Postdose at Day 1; for concentration at 4 h: 4 Hours Postdose at Day 1; for concentration at 6 h: 6 Hours Postdose at Day 1; for clearance: read-out: CL Mean (converted)
Protocol: (§1) The purpose of the study was to evaluate the safety, tolerability, pharmacokinetics and pharmacodynamics of Compound A after multiple days of IV administration in patients with NT2. NT2 patients were evaluated in Cohort C1 and C2 (Table 30). Compound A or placebo were administered via IV infusion over 9 hours once daily for 7 days. A total of 14 patients with NT2 were treated with Compound A or placebo (5, 4, and 5 subjects in the placebo, Compound A 44 mg, and Compound A 112 mg groups, respectively). In this part, potential efficacy of Compound A was evaluated with MWT, ESS, KSS, night-time PSG (NPSG), and PGI-C as an exploratory PD assessment.
Blood samples used for PK analysis of Compound A was collected according to Table 31. See also FIG. 10 for whole schedules of study procedures.

patients with NT2 = test: Epworth Sleepiness Scale (ESS) in patients with NT2; parameters: scale not given here; conditions: Day 7
Protocol: as §1

[2] = test system: subjects with obstructive sleep apnea; test: KSS in subjects with OSA experiencing EDS despite CPAP
Protocol: On Day 1 of Treatment Period 1, all eligible subjects were randomized and received the first dose of study drug. Compound A or placebo was administered as a single 9-hour IV infusion commencing at approximately 08:00. On each dosing day (Study Days 1, 3, and 5), 40-minute MWT sessions were performed at 2, 4, 6, and 8 hours after the start of the infusion. There was a minimum 24-hour washout interval between the end of the infusion and the commencement of treatment in subsequent treatment periods to allow for complete elimination of the preceding treatment effect. The KSS and PVT were collected per the Schedule of Study Procedures. Blood samples for determination of Compound A plasma concentrations were collected predose and at specified time points postdose, Safety assessments were recorded. During the study, AEs were recorded, clinical laboratory tests, vital signs, and safety ECGs were obtained. Study Days 2, 4, and 6 were washout days. Subjects were discharged from the unit following completion of study exit procedures in the afternoon of Study Day 6 (Day 2 of Treatment Period 3). Subjects were contacted by telephone approximately 7 days (±2 days) following unit discharge for a safety check.

COC(=O)N1CCC[C@H](NS(C)(=O)=O)[C@@H]1CO[C@H]1CC[C@@H](c2ccccc2)CC1 [Compound A, methyl (2R,3S)-3-((methylsulfonyl)amino)-2-(((cis-4-phenylcyclohexyl)oxy)methyl)piperidine-1-carboxylate]
Plasma Concentration Mean ([1]; Cmpd A 44 mg, 0.17 Hour after End of Infusion at Day 1): 45.48 ng/mL | Plasma Concentration Mean ([1]; Cmpd A 44 mg, 0.5 Hour after End of Infusion at Day 1): 33.98 ng/mL | Plasma Concentration Mean ([1]; Cmpd A 44 mg, 2 Hours after End of Infusion at Day 1): 16.33 ng/mL | Plasma Concentration Mean ([1]; Cmpd A 44 mg, 6 Hours after End of Infusion at Day 1): 5.020 ng/mL | Plasma Concentration Mean ([1]; Cmpd A 44 mg, 9 Hours Postdose at Day 5): 73.15 ng/mL | Plasma Concentration Mean ([1]; Cmpd A 44 mg, 9 Hours Postdose at Day 6): 65.80 ng/mL | Plasma Concentration Mean ([1]; Cmpd A 44 mg, 10 Hours after End of Infusion at Day 1): 2.515 ng/mL | Plasma Concentration Mean ([1]; Cmpd A 44 mg, 14 Hours after End of Infusion at Day 1): 0.7016 ng/mL | AUCtau D Mean ([1]; Cmpd A 44 mg, Day 1): 14.83 ng·h/mL/mg | Cmax D Mean ([1]; Cmpd A 44 mg, Day 1): 1.685 ng/mL/mg | t½z Mean ([1]; Cmpd A 44 mg, Day 1): 2.708 h | AUCtau D Mean ([1]; Cmpd A 44 mg, Day 7): 15.00 ng·h/mL/mg | Cmax D Mean ([1]; Cmpd A 44 mg, Day 7): 1.745 ng/mL/mg | PTR Mean ([1]; Cmpd A 44 mg, Day 7): 202.0 | UCtau Geo Mean ([1]; Cmpd A 44 mg, Day 7): 657.1 ng·h/mL | UCtau Mean ([1]; Cmpd A 44 mg, Day 7): 660.0 ng·h/mL | t½z Mean ([1]; Cmpd A 44 mg, Day 7): 2.643 h | Plasma Concentration Mean ([1]; Cmpd A 44 mg, Predose at Day 1): 0.000 ng/mL | Plasma Concentration Mean ([1]; Cmpd A 44 mg, Predose at Day 5): 0.9273 ng/mL | Plasma Concentration Mean ([1]; Cmpd A 44 mg, Predose at Day 6): 0.7163 ng/mL | Plasma Concentration Mean ([1]; Cmpd A 44 mg, Predose at Day 7): 0.5635 ng/mL | Plasma Concentration Mean ([1]; Cmpd A 112 mg, 0.17 Hour after End of Infusion at Day 1): 81.03 ng/mL | Plasma Concentration Mean ([1]; Cmpd A 112 mg, 0.5 Hour after End of Infusion at Day 1): 75.26 ng/mL | Plasma Concentration Mean ([1]; Cmpd A 112 mg, 2 Hours after End of Infusion at Day 1): 32.46 ng/mL | Plasma Concentration Mean ([1]; Cmpd A 112 mg, 6 Hours after End of Infusion at Day 1): 12.03 ng/mL | Plasma Concentration Mean ([1]; Cmpd A 112 mg, 10 Hours after End of Infusion at Day 1): 5.610 ng/mL | AUCtau D Mean ([1]; Cmpd A 112 mg, Day 1): 13.52 ng·h/mL/mg | Cmax D Mean ([1]; Cmpd A 112 mg, Day 1): 1.540 ng/mL/mg | t½z Mean ([1]; Cmpd A 112 mg, Day 1): 2.800 h | AUCtau D Mean ([1]; Cmpd A 112 mg, Day 7): 13.68 ng·h/mL/mg | Cmax D Mean ([1]; Cmpd A 112 mg, Day 7): 1.550 ng/mL/mg | PTR Mean ([1]; Cmpd A 112 mg, Day 7): 201.1 | UCtau Geo Mean ([1]; Cmpd A 112 mg, Day 7): 1519 ng·h/mL | UCtau Mean ([1]; Cmpd A 112 mg, Day 7): 1534 ng·h/mL | t½z Mean ([1]; Cmpd A 112 mg, Day 7): 3.136 h | Plasma Concentration Mean ([1]; Cmpd A 112 mg, Predose at Day 1): 0.000 ng/mL | Drug accumulation ([1]; QD 9-hour IV infusion daily for 7 days): no drug accumulation was observed | Dose proportionality of mean plasma systemic exposures ([1]; daily 9-hour IV infusions, 44 and 112 mg): generally increased in a dose proportional manner | Cmax ([1]; 44 mg, Cmax Geo Mean, Cmpd A 44 mg, Day 7): 76.4 ng/mL | concentration at 1 h ([1]; 44 mg, Cmpd A 44 mg): 47.4 ng/mL | concentration at 2 h ([1]; 44 mg, Cmpd A 44 mg): 59 ng/mL | concentration at 4 h ([1]; 44 mg, Cmpd A 44 mg): 74.1 ng/mL | concentration at 6 h ([1]; 44 mg, Cmpd A 44 mg): 50 ng/mL | concentration at 9 h ([1]; 44 mg, Cmpd A 44 mg, 9 Hours Postdose at Day 1, read-out: Plasma Concentration Mean): 69 ng/mL | Tmax ([1]; 44 mg, Cmpd A 44 mg, Day 1): 3.88 h | AUC(0-inf) ([1]; 44 mg, Cmpd A 44 mg, Day 1, read-out: AUCinf Geo mean): 651 ng·h/mL | AUC(0-inf) ([1]; 44 mg, Cmpd A 44 mg, Day 1, read-out: AUCinf Mean): 655 ng·h/mL | AUC(0-t) ([1]; 44 mg, Cmpd A 44 mg, Day 1, read-out: AUClast Geo mean): 648 ng·h/mL | AUC(0-t) ([1]; 44 mg, Cmpd A 44 mg, Day 1, read-out: AUClast Mean): 652 ng·h/mL | AUC ([1]; 44 mg, Cmpd A 44 mg, Day 1, read-out: AUCtau Geo mean): 648 ng·h/mL | AUC ([1]; 44 mg, Cmpd A 44 mg, Day 1, read-out: AUCtau Mean): 652 ng·h/mL | clearance ([1]; 44 mg, Cmpd A 44 mg, Day 1): 1130 mL/min | concentration at 9 h ([1]; 44 mg, Cmpd A 44 mg, Day 1, read-out: Ceoi Geo mean): 68.7 ng/mL | concentration at 9 h ([1]; 44 mg, Cmpd A 44 mg, Day 1, read-out: Ceoi Mean): 69 ng/mL | Cmax ([1]; 44 mg, Cmpd A 44 mg, Day 1, read-out: Cmax Geo mean): 73.9 ng/mL | Cmax ([1]; 44 mg, Cmpd A 44 mg, Day 1, read-out: Cmax Mean): 74.1 ng/mL | Vd ([1]; 44 mg, Cmpd A 44 mg, Day 1, read-out: Vss Mean): 122 L | Vd ([1]; 44 mg, Cmpd A 44 mg, Day 1, read-out: Vz Mean): 288 L | Tmax ([1]; 44 mg, Cmpd A 44 mg, Day 7): 3.91 h | AUC(0-t) ([1]; 44 mg, Cmpd A 44 mg, Day 7, read-out: AUClast Geo Mean): 657 ng·h/mL | AUC(0-t) ([1]; 44 mg, Cmpd A 44 mg, Day 7, read-out: AUClast Mean): 660 ng·h/mL | clearance ([1]; 44 mg, Cmpd A 44 mg, Day 7): 1120 mL/min | Cmax ([1]; 44 mg, Cmpd A 44 mg, Day 7, read-out: Cmax Mean): 76.7 ng/mL | Vd ([1]; 44 mg, Cmpd A 44 mg, Day 7, read-out: Vss Mean): 114 L | Vd ([1]; 44 mg, Cmpd A 44 mg, Day 7, read-out: Vz Mean): 258 L | Cmax ([1]; 112 mg, Cmax Geo Mean, Cmpd A 112 mg, Day 7): 172 ng/mL | concentration at 1 h ([1]; 112 mg, Cmpd A 112 mg): 123 ng/mL | concentration at 2 h ([1]; 112 mg, Cmpd A 112 mg): 142 ng/mL | concentration at 4 h ([1]; 112 mg, Cmpd A 112 mg): 170 ng/mL | concentration at 6 h ([1]; 112 mg, Cmpd A 112 mg): 138 ng/mL | concentration at 9 h ([1]; 112 mg, Cmpd A 112 mg, 9 Hours Postdose at Day 1, read-out: Plasma Concentration Mean): 150 ng/mL | Tmax ([1]; 112 mg, Cmpd A 112 mg, Day 1): 4.93 h | AUC(0-inf) ([1]; 112 mg, Cmpd A 112 mg, Day 1, read-out: AUCinf Geo mean): 1500 ng·h/mL | AUC(0-inf) ([1]; 112 mg, Cmpd A 112 mg, Day 1, read-out: AUCinf Mean): 1520 ng·h/mL | AUC(0-t) ([1]; 112 mg, Cmpd A 112 mg, Day 1, read-out: AUClast Geo mean): 1500 ng·h/mL | AUC(0-t) ([1]; 112 mg, Cmpd A 112 mg, Day 1, read-out: AUClast Mean): 1520 ng·h/mL | AUC ([1]; 112 mg, Cmpd A 112 mg, Day 1, read-out: AUCtau Geo mean): 1500 ng·h/mL | AUC ([1]; 112 mg, Cmpd A 112 mg, Day 1, read-out: AUCtau Mean): 1520 ng·h/mL | clearance ([1]; 112 mg, Cmpd A 112 mg, Day 1): 1260 mL/min | concentration at 9 h ([1]; 112 mg, Cmpd A 112 mg, Day 1, read-out: Ceoi Geo mean): 156 ng/mL | concentration at 9 h ([1]; 112 mg, Cmpd A 112 mg, Day 1, read-out: Ceoi Mean): 158 ng/mL | Cmax ([1]; 112 mg, Cmpd A 112 mg, Day 1, read-out: Cmax Geo mean): 171 ng/mL | Cmax ([1]; 112 mg, Cmpd A 112 mg, Day 1, read-out: Cmax Mean): 172 ng/mL | Vd ([1]; 112 mg, Cmpd A 112 mg, Day 1, read-out: Vss Mean): 121 L | Vd ([1]; 112 mg, Cmpd A 112 mg, Day 1, read-out: Vz Mean): 299 L | AUC(0-t) ([1]; 112 mg, Cmpd A 112 mg, Day 7, read-out: AUClast Geo Mean): 1520 ng·h/mL | AUC(0-t) ([1]; 112 mg, Cmpd A 112 mg, Day 7, read-out: AUClast Mean): 1530 ng·h/mL | clearance ([1]; 112 mg, Cmpd A 112 mg, Day 7): 1240 mL/min | Cmax ([1]; 112 mg, Cmpd A 112 mg, Day 7, read-out: Cmax Mean): 173 ng/mL | Vd ([1]; 112 mg, Cmpd A 112 mg, Day 7, read-out: Vss Mean): 124 L | Vd ([1]; 112 mg, Cmpd A 112 mg, Day 7, read-out: Vz Mean): 338 L | ESS Change from Baseline Mean (patients with NT2; Compound A 44 mg): −3.8 | ESS Change from Baseline Median (patients with NT2; Compound A 44 mg): −3.5 | ESS Observed Value Mean (patients with NT2; Compound A 44 mg): 13.3 | ESS Observed Value Median (patients with NT2; Compound A 44 mg): 14.0 | Mean ESS score (patients with NT2; Compound A 44 mg): 13.3 | Mean change from baseline in ESS (patients with NT2; Compound A 44 mg): −3.8 | ESS Change from Baseline Mean (patients with NT2; Compound A 112 mg): −12.2 | ESS Change from Baseline Median (patients with NT2; Compound A 112 mg): −13.0 | ESS Observed Value Mean (patients with NT2; Compound A 112 mg): 6.0 | ESS Observed Value Median (patients with NT2; Compound A 112 mg): 4.0 | Mean ESS score (patients with NT2; Compound A 112 mg): 6.0 | Mean change from baseline in ESS (patients with NT2; Compound A 112 mg): −12.2 | Mean placebo-adjusted decrease in KSS ([2]; Compound A 44 mg): −1.6 | Mean placebo-adjusted decrease in KSS ([2]; Compound A 112 mg): −2.4
